Measured values as given in patent publication US20260028354A1, “TETRAHYDRONAPHTHALENE DERIVATIVES AS ESTROGEN RECEPTOR DEGRADERS” (REGENT OF THE UNIVERSITY OF MICHIGAN, priority 2022, published 2026).

What was measured:
[1] = Cell growth assay (WST-8) for "B" compounds; assay type: cell-based; conditions: T47D, T47D cell line; read-out: Cell growth Inhibition in T47D cell line IC50
Summary of the method: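 Four-day compound exposure of cells plated at 1500/well the day before. Read-out is WST-8 (10%, 2.5 h, 37 °C) absorbance at 450 nm, normalized to vehicle control over three independent repeats.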

ER = ER (Homo sapiens (Human), UniProt P03372); test: In-cell western blot analysis of ER for "B" compounds; assay type: cell-based; conditions: 16 hours, read-out: ICW DC50
Sequence of ER (P03372 whole entry): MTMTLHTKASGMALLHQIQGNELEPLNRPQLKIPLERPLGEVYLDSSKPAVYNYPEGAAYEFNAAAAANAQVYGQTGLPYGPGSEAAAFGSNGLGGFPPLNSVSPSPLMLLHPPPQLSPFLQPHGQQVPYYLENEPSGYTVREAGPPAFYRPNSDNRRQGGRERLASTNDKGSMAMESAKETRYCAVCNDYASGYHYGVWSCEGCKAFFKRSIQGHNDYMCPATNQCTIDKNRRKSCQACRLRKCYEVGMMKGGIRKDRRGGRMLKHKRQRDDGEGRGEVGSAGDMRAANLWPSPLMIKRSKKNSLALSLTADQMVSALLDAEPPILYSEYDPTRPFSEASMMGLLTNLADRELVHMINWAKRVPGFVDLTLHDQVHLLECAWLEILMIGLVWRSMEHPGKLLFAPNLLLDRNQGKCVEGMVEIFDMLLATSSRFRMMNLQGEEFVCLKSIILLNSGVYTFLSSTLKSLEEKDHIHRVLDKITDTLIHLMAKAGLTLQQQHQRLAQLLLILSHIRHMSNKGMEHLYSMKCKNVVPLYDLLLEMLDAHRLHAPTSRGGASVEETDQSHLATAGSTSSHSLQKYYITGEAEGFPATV
Protocol: R^T 2h, gentle shaking. Negative control: cells plus secondary antibodies (no primary antibodies); e, wash x 4 with PBS+0.05-0.1% Tween 20, gentel shaking; f, anti-rabbit-680 and anti-mouse-800 (both 1:1000 in LiCor block+0.05% Tween20, R^T 1h, gentle shaking, no light. LI-COR: 0.2% to reduce background; g, wash×4 with PBS+0.05% Tween 20, gental shaking; h, add 100 μL or 25 μL of PBS to each well and read on CLX plate reader. The relative ER percentage in treated cells were obtained by comparing the values of treated wells to those in untreated and DMSO-treated wells as 100%.

Compound	IC50 [1] [nM]	DC50 (ER) [nM]
O=C1CCC(N2Cc3c(ccc4c3N3CCN(CC5CCN(c6ccc([C@@H]7c8ccc(O)cc8CC[C@@H]7c7ccccc7)cc6)CC5)C[C@H]3CO4)C2=O)C(=O)N1 (stereo partly drawn) [Compound B243, 3-((S)-9-((1-(4-((1R,2S)-6-hydroxy-2-phenyl-1,2,3,4-tetrahydronaphthalen-1-yl)phenyl)piperidin-4-yl)methyl)-3-oxo-1,3,7,7a,8,9,10,11-octahydro-2H-pyrazino[1′,2′:4,5][1,4]oxazino[3,2-e]isoindol-2-yl)piperidine-2,6-dione]	1 to 10	10 to 100
O=C1CC[C@H](NC(=O)c2ccc(N3CCN(CC4CCN(c5ccc([C@@H]6c7ccc(O)cc7CC[C@@H]6c6ccccc6)cc5)CC4)CC3)cc2)C(=O)N1 [Compound B315, N-((S)-2,6-dioxopiperidin-3-yl)-4-(4-((1-(4-((1R,2S)-6-hydroxy-2-phenyl-1,2,3,4-tetrahydronaphthalen-1-yl)phenyl)piperidin-4-yl)methyl)piperazin-1-yl)benzamide]	1 to 10	> 100
O=C1CCC(N2Cc3cc4c(cc3C2=O)OC[C@@H]2CN(CC3CC5CN(c6ccc([C@@H]7c8ccc(O)cc8CC[C@@H]7c7ccccc7)cc6)CC5C3)CCN42)C(=O)N1 (mixture of isomers) [Compound B321, 3-((4aS)-3-(((3aRS,6aSR)-2-(4-((1R,2S)-6-hydroxy-2-phenyl-1,2,3,4-tetrahydronaphthalen-1-yl)phenyl)octahydrocyclopenta[c]pyrrol-5-yl)methyl)-8-oxo-1,2,3,4,4a,5,8,10-octahydro-9H-pyrazino[1′,2′:4,5][1,4]oxazino[2,3-f]isoindol-9-yl)piperidine-2,6-dione]		> 100
O=C1CCC(Nc2ccc(C3CCN(CC4CCN(c5ccc([C@@H]6c7ccc(O)cc7CC[C@@H]6c6ccccc6)cc5)CC4)CC3)cc2F)C(=O)N1 (stereo partly drawn) [Compound B378, 3-((2-fluoro-4-(1-((1-(4-((1R,2S)-6-hydroxy-2-phenyl-1,2,3,4-tetrahydronaphthalen-1-yl)phenyl)piperidin-4-yl)methyl)piperidin-4-yl)phenyl)amino)piperidine-2,6-dione]		> 100
O=C1CCC(N2Cc3cc4c(cc3C2=O)OC[C@@H]2CN(CC(=O)N3C[C@@H]5CN(c6ccc([C@@H]7c8ccc(O)cc8CC[C@@H]7c7ccccc7)cc6)C[C@@H]5C3)CCN42)C(=O)N1 (stereo partly drawn) [Compound B156, 3-((S)-3-(2-((3aR,6aS)-5-(4-((1R,2S)-6-hydroxy-2-phenyl-1,2,3,4-tetrahydronaphthalen-1-yl)phenyl)hexahydropyrrolo[3,4-c]pyrrol-2(1H)-yl)-2-oxoethyl)-8-oxo-1,2,3,4,4a,5,8,10-octahydro-9H-pyrazino[1′,2′:4,5][1,4]oxazino[2,3-f]isoindol-9-yl)piperidine-2,6-dione]		> 100
O=C1CC[C@H](N2Cc3cc4c(cc3C2=O)OC[C@@H]2CN(C[C@H]3CC[C@@H](Nc5ccc([C@@H]6c7ccc(O)cc7CC[C@@H]6c6ccccc6)cc5)CC3)CCN42)C(=O)N1 [Compound B354, (S)-3-((S)-3-(((1R,4S)-4-((4-((1R,2S)-6-hydroxy-2-phenyl-1,2,3,4-tetrahydronaphthalen-1-yl)phenyl)amino)cyclohexyl)methyl)-8-oxo-1,2,3,4,4a,5,8,10-octahydro-9H-pyrazino[1′,2′:4,5][1,4]oxazino[2,3-f]isoindol-9-yl)piperidine-2,6-dione]		10 to 100
O=C1CCC(Nc2ccc(N3CCN(CC4CCC5(CCN(c6ccc([C@@H]7c8ccc(O)cc8CC[C@@H]7c7ccccc7)cc6)CC5)OC4)CC3)c(F)c2)C(=O)N1 (stereo partly drawn) [Compound B382, 3-((3-fluoro-4-(4-((9-(4-((1R,2S)-6-hydroxy-2-phenyl-1,2,3,4-tetrahydronaphthalen-1-yl)phenyl)-1-oxa-9-azaspiro[5.5]undecan-3-yl)methyl)piperazin-1-yl)phenyl)amino)piperidine-2,6-dione]		> 100
O=C1CCC(N2Cc3cc4c(cc3C2=O)OC[C@@H]2CN(C(=O)CN3CCC5(CC3)CCN(c3ccc([C@@H]6c7ccc(O)cc7CC[C@@H]6c6ccccc6)cn3)CC5)CCN42)C(=O)N1 (stereo partly drawn) [Compound B158, 3-((S)-3-(2-(9-(5-((1S,2S)-6-hydroxy-2-phenyl-1,2,3,4-tetrahydronaphthalen-1-yl)pyridin-2-yl)-3,9-diazaspiro[5.5]undecan-3-yl)acetyl)-8-oxo-1,2,3,4,4a,5,8,10-octahydro-9H-pyrazino[1′,2′:4,5][1,4]oxazino[2,3-f]isoindol-9-yl)piperidine-2,6-dione]		10 to 100
O=C1CC[C@H](N2Cc3c(ccc4c3OC[C@H]3CN(CC5CCC6(CN(c7ccc([C@@H]8c9ccc(O)cc9CC[C@@H]8c8ccccc8)cc7)C6)OC5)CCN43)C2=O)C(=O)N1 (stereo partly drawn) [Compound B348, (3S)-3-((5aR)-7-((2-(4-((1R,2S)-6-hydroxy-2-phenyl-1,2,3,4-tetrahydronaphthalen-1-yl)phenyl)-5-oxa-2-azaspiro[3.5]nonan-7-yl)methyl)-1-oxo-1,3,5,5a,6,7,8,9-octahydro-2H-pyrazino[1′,2′:4,5][1,4]oxazino[2,3-e]isoindol-2-yl)piperidine-2,6-dione]		< 10
O=C1CCC(N2Cc3c(ccc4c3OCC43CCN(C(=O)CN4CCC5(C4)CN(c4ccc([C@@H]6c7ccc(O)cc7CC[C@@H]6c6ccccc6)cc4)C5)CC3)C2=O)C(=O)N1 (stereo partly drawn) [Compound B169, 3-(1′-(2-(2-(4-((1R,2S)-6-hydroxy-2-phenyl-1,2,3,4-tetrahydronaphthalen-1-yl)phenyl)-2,6-diazaspiro[3.4]octan-6-yl)acetyl)-6-oxo-6,8-dihydro-2H,7H-spiro[furo[2,3-e]isoindole-3,4′-piperidin]-7-yl)piperidine-2,6-dione]		< 10
O=C1CCC(Nc2ccc(N3CCN(CC4CC5(CCN(c6ccc([C@@H]7c8ccc(O)cc8CC[C@@H]7c7ccccc7)cc6)CC5)C4)CC3)c(F)c2)C(=O)N1 (stereo partly drawn) [Compound B381, 3-((3-fluoro-4-(4-((7-(4-((1R,2S)-6-hydroxy-2-phenyl-1,2,3,4-tetrahydronaphthalen-1-yl)phenyl)-7-azaspiro[3.5]nonan-2-yl)methyl)piperazin-1-yl)phenyl)amino)piperidine-2,6-dione]		> 100
O=C1CCC(N2Cc3cc4c(cc3C2=O)OC[C@@H]2CN(C(=O)CN3CCC5(CC3)CN(c3ccc([C@@H]6c7ccc(O)cc7CC[C@@H]6c6ccccc6)cc3)C5)CCN42)C(=O)N1 (stereo partly drawn) [Compound B161, 3-((S)-3-(2-(2-(4-((1R,2S)-6-hydroxy-2-phenyl-1,2,3,4-tetrahydronaphthalen-1-yl)phenyl)-2,7-diazaspiro[3.5]nonan-7-yl)acetyl)-8-oxo-1,2,3,4,4a,5,8,10-octahydro-9H-pyrazino[1′,2′:4,5][1,4]oxazino[2,3-f]isoindol-9-yl)piperidine-2,6-dione]		< 10
O=C1CCC(N2Cc3cc4c(cc3C2=O)OC[C@@H]2CN(CC(=O)N3CCC5(CC3)CN(c3ccc([C@@H]6c7ccc(O)cc7CC[C@@H]6c6ccccc6)cc3)C5)CCN42)C(=O)N1 (stereo partly drawn) [Compound B160, 3-((S)-3-(2-(2-(4-((1R,2S)-6-hydroxy-2-phenyl-1,2,3,4-tetrahydronaphthalen-1-yl)phenyl)-2,7-diazaspiro[3.5]nonan-7-yl)-2-oxoethyl)-8-oxo-1,2,3,4,4a,5,8,10-octahydro-9H-pyrazino[1′,2′:4,5][1,4]oxazino[2,3-f]isoindol-9-yl)piperidine-2,6-dione]		< 10
O=C1CCC(Nc2ccc(C3CCN(CC4CC5(CCN(c6ccc([C@@H]7c8ccc(O)cc8CC[C@@H]7c7ccccc7)cc6)CC5)C4)CC3)cc2F)C(=O)N1 (stereo partly drawn) [Compound B379, 3-((2-fluoro-4-(1-((7-(4-((1R,2S)-6-hydroxy-2-phenyl-1,2,3,4-tetrahydronaphthalen-1-yl)phenyl)-7-azaspiro[3.5]nonan-2-yl)methyl)piperidin-4-yl)phenyl)amino)piperidine-2,6-dione]		> 100
O=C1CC[C@H](N2Cc3c(ccc4c3OC[C@H]3CN(C[C@H]5CC[C@H](Nc6ccc([C@@H]7c8ccc(O)cc8CC[C@@H]7c7ccccc7)cc6)CC5)CCN43)C2=O)C(=O)N1 [Compound B353, (S)-3-((R)-7-(((1R,4R)-4-((4-((1R,2S)-6-hydroxy-2-phenyl-1,2,3,4-tetrahydronaphthalen-1-yl)phenyl)amino)cyclohexyl)methyl)-1-oxo-1,3,5,5a,6,7,8,9-octahydro-2H-pyrazino[1′,2′:4,5][1,4]oxazino[2,3-e]isoindol-2-yl)piperidine-2,6-dione]		10 to 100
O=C1CCC(N2Cc3c(ccc4c3OC[C@H]3CN(C[C@H]5CC[C@H](Nc6ccc([C@@H]7c8ccc(O)cc8CC[C@@H]7c7ccccc7)cc6)CC5)CCN43)C2=O)C(=O)N1 (stereo partly drawn) [Compound B322, 3-((R)-7-(((1R,4R)-4-((4-((1R,2S)-6-hydroxy-2-phenyl-1,2,3,4-tetrahydronaphthalen-1-yl)phenyl)amino)cyclohexyl)methyl)-1-oxo-1,3,5,5a,6,7,8,9-octahydro-2H-pyrazino[1′,2′:4,5][1,4]oxazino[2,3-e]isoindol-2-yl)piperidine-2,6-dione]		< 10
O=C1CCC(N2Cc3c(ccc4c3OC[C@H]3CN(CC5CC6CN(c7ccc([C@@H]8c9ccc(O)cc9CC[C@@H]8c8ccccc8)cc7)CC6C5)CCN43)C2=O)C(=O)N1 (stereo partly drawn) [Compound B320, 3-((5aR)-7-(((3aRS,6aSR)-2-(4-((1R,2S)-6-hydroxy-2-phenyl-1,2,3,4-tetrahydronaphthalen-1-yl)phenyl)octahydrocyclopenta[c]pyrrol-5-yl)methyl)-1-oxo-1,3,5,5a,6,7,8,9-octahydro-2H-pyrazino[1′,2′:4,5][1,4]oxazino[2,3-c]isoindol-2-yl)piperidine-2,6-dione]		> 100
